Experimental data published in patent publication US12521375B2, “Pharmaceutical composition for treating fatty liver disease” (Shionogi & Co., Ltd., priority 2020, dated 2026).
pIC50: −log10 of the molar value. Where two headings read alike, the source gives them in different places.

Legend:
[1] = biological target: recombinant human ACC1 (Homo sapiens (Human), UniProt Q13085); test: Measurement of inhibitory activity of human ACC1; type: biochemical; conditions: read-out: IC50 hACC1
Excerpt: A cDNA encoding human ACC1 protein (1 amino acid residue to 2346 amino acid residues from the N-terminus) was cloned from a human liver cDNA library (BioChain Institute Inc.), myc tag and His-tag sequences were introduced at the 3′ end, and then inserted into pIEXBAC3 (Novagen). A recombinant baculovirus was produced in accordance with the protocol for FlashBACGOLD (Oxford Expression Technologies Ltd.), and Sf-9 cells were infected therewith to express human ACC1 protein. The recovered cells were crushed, filtered through a filter, and then subjected to Ni affinity chromatography and anion exchange chromatography. Fractions containing human ACC1 protein were collected to obtain recombinant human ACC1.
(§1) The recombinant human ACC1 and the recombinant human ACC2 obtained from the above Preparation Examples were preincubated in an assay buffer (50 mM HEPES-KOH (pH 7.4), 10 mM magnesium chloride, 6 to 10 mM potassium citrate, 4 mM reduced glutathione, and 1.5 mg/ml bovine serum albumin) for 1 hour. Then, 5 μL of the pre-incubated enzyme solution and 5 μL of a substrate solution (50 mM HEPES-KOH (pH 7.4), 1 mM ATP, 0.8 mM acetyl-CoA, and 25 to 50 mM potassium bicarbonate) were added to a 384-well microplate into which 0.2 μL of each of solutions of the compound of the present invention (DMSO) had been dispensed, and the mixture was centrifuged and shaken, and then incubated in a wet box at room temperature for 1 to 3 hours. After incubation, the enzymatic reaction was stopped by addition of EDTA, and then the compound was co-crystallized with an α-cyano-4-hydroxy cinnamic acid (CHCA) matrix on a MALDI target plate, and measurement was performed in a reflector negative mode using a matrix-assisted laser desorption ionization-time-of-flight mass spectrometer (MALDI-TOF MS). Deprotonated ions of the substrate acetyl-CoA (AcCoA) and the reaction product malonyl-CoA (MalCoA) were detected, and the intensity of each signal was used to calculate a conversion rate to malonyl-CoA […], i.e., intensity of [MalCoA-H]-/(intensity of [MalCoA-H]-+intensity of [AcCoA-H]-). […] The potassium citrate concentration in the assay buffer, the potassium bicarbonate concentration in the substrate solution, and the incubation time were adjusted within the above concentrations or reaction times for each lot of the enzyme to be used.

[2] = Metabolic stability test (human); type: in vitro ADME; conditions: human liver microsomes, 37° C., 30 minutes, NADPH
Description: (§2) Commercially available pooled human liver microsomes were reacted with the compound of the present invention for a given time. A residual rate was calculated by comparison between the reacted sample and the unreacted sample to evaluate a degree at which the compound of the present invention is metabolized in the liver.
(§3) The compound was reacted at 37° C. for 0 minutes or 30 minutes in the presence of 1 mmol/L NADPH in 0.2 mL of a buffer (50 mmol/L Tris-HCl pH 7.4, 150 mmol/L potassium chloride, and 10 mmol/L magnesium chloride) containing 0.5 mg protein/mL of the human liver microsomes (oxidative reaction). After the reaction, 50 μL of the reaction solution was added to 100 μL of a solution of methanol/acetonitrile=1/1 (v/v) and mixed, and the mixture was centrifuged at 3000 rpm for 15 minutes. The compound of the present invention in the centrifuged supernatant was quantified by LC/MS/MS or solid-phase extraction (SPE)/MS. The amount of the compound of the present invention remained after the reaction was calculated with the amount of the compound at 0 minutes of the reaction defined as 100%.

[3] = Metabolic stability test (rat); type: in vitro ADME
Description: [Worded in the source for another species; this species is reported under the same test.] as §2, §3

[4] = tested on: NAFLD patients; conditions: cited from earlier work
[5] = tested on: healthy subjects; conditions: repeated administration to healthy subjects; cited from earlier work
[6] = biological target: recombinant human ACC2 (Homo sapiens (Human), UniProt O00763); test: Measurement of inhibitory activity of human ACC2; type: biochemical; conditions: read-out: IC50 hACC2
Sequence of recombinant human ACC2 (O00763 27-2458): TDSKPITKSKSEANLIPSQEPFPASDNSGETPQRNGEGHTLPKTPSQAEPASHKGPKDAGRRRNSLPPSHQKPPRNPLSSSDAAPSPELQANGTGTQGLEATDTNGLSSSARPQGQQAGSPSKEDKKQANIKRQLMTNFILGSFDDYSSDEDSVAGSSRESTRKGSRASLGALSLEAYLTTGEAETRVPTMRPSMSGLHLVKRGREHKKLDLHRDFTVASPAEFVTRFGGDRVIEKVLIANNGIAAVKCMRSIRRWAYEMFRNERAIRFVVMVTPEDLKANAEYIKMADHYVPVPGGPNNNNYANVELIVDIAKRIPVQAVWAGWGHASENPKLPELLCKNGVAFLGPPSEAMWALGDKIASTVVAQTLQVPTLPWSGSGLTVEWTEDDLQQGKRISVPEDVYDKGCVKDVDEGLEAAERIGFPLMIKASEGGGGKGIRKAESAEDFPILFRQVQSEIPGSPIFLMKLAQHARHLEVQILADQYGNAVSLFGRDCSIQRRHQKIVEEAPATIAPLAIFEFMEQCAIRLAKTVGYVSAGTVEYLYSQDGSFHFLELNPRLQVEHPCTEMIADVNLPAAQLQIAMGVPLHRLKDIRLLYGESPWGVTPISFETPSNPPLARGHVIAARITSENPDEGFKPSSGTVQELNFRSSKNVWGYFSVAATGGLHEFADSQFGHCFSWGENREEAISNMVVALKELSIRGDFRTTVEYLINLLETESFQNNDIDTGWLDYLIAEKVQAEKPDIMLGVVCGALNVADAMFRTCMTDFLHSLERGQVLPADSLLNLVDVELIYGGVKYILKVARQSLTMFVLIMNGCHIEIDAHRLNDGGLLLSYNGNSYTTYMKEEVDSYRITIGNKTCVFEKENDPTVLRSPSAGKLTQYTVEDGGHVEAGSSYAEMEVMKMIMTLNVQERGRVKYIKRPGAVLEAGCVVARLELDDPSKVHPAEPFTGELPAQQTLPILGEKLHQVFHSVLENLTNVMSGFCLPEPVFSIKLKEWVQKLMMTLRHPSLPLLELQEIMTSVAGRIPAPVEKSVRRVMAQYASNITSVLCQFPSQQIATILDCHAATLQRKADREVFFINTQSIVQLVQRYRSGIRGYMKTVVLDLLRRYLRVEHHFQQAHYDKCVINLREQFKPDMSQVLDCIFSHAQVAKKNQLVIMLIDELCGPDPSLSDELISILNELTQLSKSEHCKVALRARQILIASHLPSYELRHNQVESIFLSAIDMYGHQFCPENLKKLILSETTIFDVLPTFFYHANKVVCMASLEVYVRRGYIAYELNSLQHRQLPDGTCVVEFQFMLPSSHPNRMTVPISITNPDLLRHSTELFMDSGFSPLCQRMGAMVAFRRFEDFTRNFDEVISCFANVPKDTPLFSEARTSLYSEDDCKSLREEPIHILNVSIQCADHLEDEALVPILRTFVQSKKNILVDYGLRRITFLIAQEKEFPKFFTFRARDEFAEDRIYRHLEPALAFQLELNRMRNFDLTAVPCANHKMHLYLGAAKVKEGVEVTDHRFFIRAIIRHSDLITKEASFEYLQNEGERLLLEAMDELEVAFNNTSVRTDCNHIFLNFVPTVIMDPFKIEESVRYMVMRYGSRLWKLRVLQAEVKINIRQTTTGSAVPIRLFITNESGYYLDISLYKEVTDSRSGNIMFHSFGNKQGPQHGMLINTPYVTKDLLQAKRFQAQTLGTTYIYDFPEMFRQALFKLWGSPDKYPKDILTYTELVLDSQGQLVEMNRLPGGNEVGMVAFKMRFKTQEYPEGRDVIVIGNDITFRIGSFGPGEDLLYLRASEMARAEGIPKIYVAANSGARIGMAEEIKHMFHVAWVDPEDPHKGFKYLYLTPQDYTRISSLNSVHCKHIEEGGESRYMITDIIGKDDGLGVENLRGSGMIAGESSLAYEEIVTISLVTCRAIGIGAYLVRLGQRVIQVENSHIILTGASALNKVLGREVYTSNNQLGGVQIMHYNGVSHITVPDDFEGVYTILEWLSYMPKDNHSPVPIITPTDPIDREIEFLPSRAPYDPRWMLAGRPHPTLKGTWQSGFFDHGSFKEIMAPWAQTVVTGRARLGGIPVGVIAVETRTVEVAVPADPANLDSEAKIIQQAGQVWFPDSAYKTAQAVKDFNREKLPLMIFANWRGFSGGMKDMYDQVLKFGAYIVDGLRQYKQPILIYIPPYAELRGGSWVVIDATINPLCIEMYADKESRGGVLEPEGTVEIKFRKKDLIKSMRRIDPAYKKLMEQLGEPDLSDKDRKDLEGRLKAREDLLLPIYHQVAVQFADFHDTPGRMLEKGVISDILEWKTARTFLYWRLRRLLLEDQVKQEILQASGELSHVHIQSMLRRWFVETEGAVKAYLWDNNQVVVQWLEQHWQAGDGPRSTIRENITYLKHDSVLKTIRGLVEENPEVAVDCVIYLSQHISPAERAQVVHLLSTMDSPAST
Excerpt: A cDNA encoding human ACC2 protein (27 amino acid residues to 2458 amino acid residues from the N-terminus) was cloned from a human kidney cDNA library (Clontech Laboratories, Inc.), a His-tag sequence was introduced at the 5′ end, and then inserted into pFastBac1 (Invitrogen). A recombinant baculovirus was produced in accordance with the protocol for a Bac-to-Bac baculovirus expression system (Invitrogen), and Sf-9 cells were infected therewith to express human ACC2 protein. The recovered cells were crushed, filtered through a filter, and then subjected to Ni affinity chromatography and anion exchange chromatography. Fractions containing human ACC2 protein were collected to obtain recombinant human ACC2.
as §1, with “Then, 5 μL of the pre-incubated enzyme solution and 5 μL of a substrate solution (50 mM HEPES-KOH (pH 7.4), 1 mM ATP, 0.8 mM acetyl-CoA, and 25 to 50 mM potassium bicarbonate) were added to a 384-well microplate into which 0.2 μL of each of solutions of the compound of the present invention (DMSO) had been dispensed, and the mixture was centrifuged and shaken, and then incubated in a wet box at room temperature for 1 to 3 hours.” left out

Row | pIC50 [1] | Amount of compound remained, Human [2] | Amount of compound remained, Rat [3] | pIC50 [6] | SMILES | Plasma triglyceride concentration [4] | platelet concentration [5] | Plasma triglyceride concentration ([4]; phase II study over 12 weeks)
1 | 5.57 | 94.8% | 78% | 8.18 | CC(=O)N[C@@H](C)CO[C@H]1CC[C@H](Oc2nc3c(F)cc(OCC(F)F)c(F)c3n2C)CC1 [Compound I-14] | – | – | –
2 | 5.59 | – | – | 7.89 | CC(=O)N[C@@H](C)CC[C@H]1OC[C@H](Oc2nc3c(F)cc(OCC(F)F)c(F)c3n2C)CC1(F)F [Compound I-9] | – | – | –
3 | 5.77 | 80.2% | 76.2% | 8.42 | CC(=O)N[C@@H](C)CO[C@H]1CC[C@H](Oc2nc3c(F)cc(OC4CC4)cc3n2C)CC1 [Compound I-15] | – | – | –
4 | 5.15 | 95.8% | 94.5% | 8.02 | C[C@@H](CCC1OCC(Oc2nc3c(F)cc(OCC(F)F)c(F)c3n2C)CO1)NC(N)=O (stereo partly drawn) [Compound I-11] | – | – | –
5 | < 4.00 | – | – | 7.05 | CC(=O)N[C@@H](C)CC(F)(F)[C@@H]1CC[C@@H](Oc2nc3c(F)cc(OCC(F)F)c(F)c3n2C)CO1 [Compound I-10] | – | – | –

Continued, molecule first:

Row | SMILES | pIC50 [1] | Amount of compound remained, Human [2] | Amount of compound remained, Rat [3] | pIC50 [6] | Plasma triglyceride concentration [4] | platelet concentration [5] | Plasma triglyceride concentration ([4]; phase II study over 12 weeks)
6 | CC(=O)N[C@@H](C)CO[C@H]1CC[C@H](Oc2nc3c(Cl)cc(OC4CC4)cc3n2C)CC1 [Compound I-3] | 5.55 | 80.3% | 82.6% | – | – | – | –
7 | CC(=O)N[C@@H](C)CO[C@H]1CC[C@H](Oc2nc3c(F)cc(OC4CCC4)cc3n2C)CC1 [Compound I-1] | 6.49 | – | – | – | – | – | –
8 | COc1cc(C(=O)N2CCC3(CC2)CC(=O)c2cc(-c4cncc(C(=O)O)c4)ccc2O3)cc2c1c(C)cn2C1CC1 [MK-4074] | – | – | – | – | elevated plasma triglyceride concentration | – | –
9 | Cc1nc2ccc(C(=O)N3CCC4(CC3)CC(=O)c3c(cnn3C(C)C)C4)cc2[nH]1 [PF-05175157] | – | – | – | – | – | reduced a platelet concentration | –
10 | CC(=O)N[C@H](C)C(F)(F)C[C@H]1CC[C@H](Oc2nc3c(F)cc(OCC(F)F)c(F)c3n2C)CO1 [Compound I-7] | 4.60 | 89.1% | 74.7% | 6.74 | – | – | –
11 | Cn1c(O[C@H]2CC[C@H](OC[C@H](CF)NC(N)=O)CC2)nc2c(F)cc(OC3CC3)cc21 [Compound I-5] | 5.16 | 98.9% | 83.4% | 8.05 | – | – | –
12 | CC(=O)N[C@@H](CF)CO[C@H]1CC[C@H](Oc2nc3c(F)cc(OC4CC4)cc3n2C)CC1 [Compound I-4] | 5.57 | 93.4% | 87.3% | 8.33 | – | – | –
13 | CC(=O)N[C@@H](C)C(F)(F)C[C@H]1CC[C@H](Oc2nc3c(F)cc(OCC(F)F)c(F)c3n2C)CO1 [Compound I-6] | 6.04 | 93.2% | 74% | 7.92 | – | – | –
14 | CC(=O)N[C@@H](C)CC[C@H]1OC[C@H](Oc2nc3c(F)cc(OCC(F)F)c(F)c3n2C)C[C@@H]1F [Compound I-2] | 5.62 | – | – | 8.00 | – | – | –
15 | COc1ccccc1[C@H](Cn1c(=O)n(C(C)(C)C(=O)O)c(=O)c2c(C)c(-c3ncco3)sc21)OC1CCOCC1 [firsocostat] | – | – | – | – | – | – | elevated plasma triglyceride concentration
16 | C[C@@H](CO[C@H]1CC[C@H](Oc2nc3c(Cl)cc(OC4CC4)cc3n2C)CC1)NC(N)=O [Compound I-8] | 5.21 | 83.6% | 85.4% | 7.77 | – | – | –
